Consider five compounds from patent publication US5814628A, “Benzyl-substituted compounds having dopamine receptor affinity” (Allelix Biopharmaceuticals Inc., priority 1996, dated 1998).

Assay [1] concerns the target T1, human D4 receptor (D4.2 sub-type) (Homo sapiens, UniProt P21917, DEL265-296).
T1 construct: expressed in transfected cells; host or cells: HEK 298 (human embryonic kidney); homogenate used
T1 sequence (P21917 with tags, fused parts or gaps DEL265-296): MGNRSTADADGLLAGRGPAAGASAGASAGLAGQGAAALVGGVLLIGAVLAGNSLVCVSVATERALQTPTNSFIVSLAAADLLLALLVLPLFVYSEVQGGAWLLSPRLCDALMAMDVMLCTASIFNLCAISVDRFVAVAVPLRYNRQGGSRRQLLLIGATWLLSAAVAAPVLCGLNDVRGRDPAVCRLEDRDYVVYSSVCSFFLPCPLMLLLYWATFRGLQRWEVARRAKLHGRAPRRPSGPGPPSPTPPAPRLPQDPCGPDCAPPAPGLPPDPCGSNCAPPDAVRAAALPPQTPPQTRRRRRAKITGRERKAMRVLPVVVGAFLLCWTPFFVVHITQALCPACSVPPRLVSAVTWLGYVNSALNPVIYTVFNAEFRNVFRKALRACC
Description: D4 receptor-binding affinity (displacement of 3H-spiperone). The conditions noted are these: 3H-spiperone 0.25 nM, HEK 298 cell membranes, Cheng and Prustoff transformation. Here is the method: The potency of the test compound to reduce ^3 H-spiperone binding directly correlated to its binding affinity for the receptor.
The cells were then centrifuged in a Sorval centrifuge for 10 minutes, 5000 rpm (GS3 rotor) and the pellets quickly frozen in liquid nitrogen and stored at -80° C. until used in binding assay.
Concentration of receptor protein was determined using the Pierce BCA assay.
The tubes were vortexed and incubated at room temperature for 90 minutes. The binding reaction was stopped by filtering using a Brandell Cell Harvester. The samples were filtered under vacuum over glass fibre filters (Whatman GF/B) presoaked for 2 hours in 0.3% polyethylenimine (PEI) in 50 mM Tris buffer (pH7.4). The filters were then washed 3 times with 5 mL ice cold 50 mM Tris buffer (pH7.4). Individual filter disks were put in scintillation vials (Biovials, Bechman).
The tubes were vortexed and incubated at room temperature for 90 minutes at which time the binding reaction was stopped by filtering. The filters were washed and counted using the same procedure as in the total binding assay described above to give the non-specific binding value (NSB).
The incubation was started by the addition to 12×75 mm polypropylene tubes 500 μl (50 μg protein) membrane homogenate to a solution of 400 μl incubation buffer, 100 μl (0.25 final conc.) ^3 H-spiperone (90Ci/mmol, Amersham, diluted in borosilicate glass vial to) and […] of test compound that was prepared from 1 mM stock dissolved in DMSO and stored at -20° C. in polypropylene cryogenic storage vials until dilution in incubation buffer in borosilicate glass vials. The tubes were vortexed and incubated at room temperature for 90 minutes at which time the binding reaction was stopped by filtering. The filters were washed and counted using the same procedure as in the total binding assay described above to give the displacement binding value (BD).
IC50 was determined from an inhibition response curve, logit-log plot of %B/B0 vs concentration of test compound.
Ki was calculated by the Cheng and Prustoff transformation: […]
where [L] is the concentration of ^3 H-spiperone used in the assay and KD is the dissociation constant of ^3 H-spiperone determined independently under the same binding conditions.
Background: Displacement assays read how much labelled ligand stays bound in the presence of the test substance.

Assay [2] relates to human D2 receptor (short isoform) relative to human D4 receptor (D4.2 sub-type). Description: D4 selectivity: D2 versus D4 receptor binding (displacement of 3H-spiperone). The conditions noted are these: D2/D4 ratio, D2 in GH4 C1 cells, D4 in HEK 298 cells. On the procedure: The potency of the test compound to reduce ^3 H-spiperone binding directly correlated to its binding affinity for the receptor. […] When used in the assay, cells were thawed on ice for 20 minutes and then 10 mL of incubation buffer (50 mM Tris, 1 mM EDTA, 4 mM MgCI2, 5 mM KCI, 1.5 mM CaCI2, 120 mM NaCI, pH7.4) was added. […] Concentration of receptor protein was determined using the Pierce BCA assay. […] After 16 hours, fresh media was added to allow the cells to recover for 24 hours. The cells were harvested using versene and then centrifuged in a Sorval centrifuge for 10 minutes, at 5000 rpm (GS3 rotor). Pellets were quickly frozen in liquid nitrogen and stored at -80° C. until used in the binding assays. When used in the assay, cells were thawed on ice for 20 minutes. […] The receptor protein concentration was determined using the Pierce BCA assay. […] The tubes were vortexed and incubated at room temperature for 90 minutes. The binding reaction was stopped by filtering using a Brandell Cell Harvester. The samples were filtered under vacuum over glass fibre filters (Whatman GF/B) presoaked for 2 hours in 0.3% polyethylenimine (PEI) in 50 mM Tris buffer (pH7.4). The filters were then washed 3 times with 5 mL ice cold 50 mM Tris buffer (pH7.4). Individual filter disks were put in scintillation vials (Biovials, Bechman). […] The tubes were vortexed and incubated at room temperature for 90 minutes at which time the binding reaction was stopped by filtering. The filters were washed and counted using the same procedure as in the total binding assay described above to give the non-specific binding value (NSB). […] The tubes were vortexed and incubated at room temperature for 90 minutes at which time the binding reaction was stopped by filtering. The filters were washed and counted using the same procedure as in the total binding assay described above to give the displacement binding value (BD). […] IC50 was determined from an inhibition response curve, logit-log plot of %B/B0 vs concentration of test compound.

The next assay addresses D4 receptor. The settings on record: marketed products, background section; read-out: D4 affinity, Ki value; cited from earlier work.
The test system of assay [3] is D4 receptor relative to the D2 receptor. The settings on record: marketed products, background section; cited from earlier work.

Usually Ki stands for the equilibrium dissociation constant of an inhibitor or competing ligand from its target. For the compound `N#Cc1cccc(CN2CCN(C3=Nc4ccccc4Oc4ccccc43)CC2)c1` [11-[4-(3-cyanobenzyl)-1-piperazinyl]dibenz[b,f][1,4]oxazepine], the affinity in assay [1], expressed as Ki, was 134 nM. In addition, in assay [2], the D2/D4 worked out at 21.7.
For `CN1CCN(C2=Nc3cc(Cl)ccc3Oc3ccccc32)CC1` [isoloxapine], the Ki on D4 receptor was approximately 20 nM. For the same compound, the “preference for binding the D4 receptor relative to the D2 receptor” value in assay [3] was “about 10 fold”.
In the case of `N#Cc1ccccc1CN1CCN(C2=Nc3ccccc3Oc3ccccc32)CC1` [11-[4-(2-cyanobenzyl)-1-piperazinyl]dibenz[b,f][1,4]oxazepine], the Ki in assay [1] was 519 nM. Also, the D2/D4 in assay [2] is 16.1.
In the same order, the values of `Clc1ccc2c(c1)N=C(N1CCN(Cc3ccccc3)CC1)c1ccccc1O2` [8-Chloro-11-(4-benzyl-1-piperazinyl)-dibenz[b,f][1,4]oxazepine] are 19 nM and 31.7.
In the same order, the values of `N#Cc1ccc(CN2CCN(C3=Nc4ccccc4Oc4ccccc43)CC2)cc1` [11-[4-(4-cyanobenzyl)-1-piperazinyl]dibenz[b,f][1,4]oxazepine] are 108 nM and 90.1.
